Test results as given in ChEMBL document CHEMBL1201862, “PubChem BioAssay data set” (2004).
Activity calls are given as the source filed them.

Assays:
[1] = biological target: Nuclear receptor subfamily 5 group A member 2 (Homo sapiens, UniProt O00482); type: functional, cell-based;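 further: HEK293T cells transfected with LRH-1 and a StAR promoter luciferase reporter; potency for inhibitors that lower LRH-1 driven reporter light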
Steroidogenic factor 1 = Steroidogenic factor 1 (Homo sapiens, UniProt Q13285); experiment: Counterscreen for inverse agonists of the liver receptor homolog-1 (LRH-1; NR5A2): Luminescence-based cell-based high throughput dose response assay to identify inverse agonists of the Steroidogenic Factor 1 Nuclear Receptor (SF1; NR5A1).; type: functional
Sequence of Steroidogenic factor 1 (Q13285 whole entry): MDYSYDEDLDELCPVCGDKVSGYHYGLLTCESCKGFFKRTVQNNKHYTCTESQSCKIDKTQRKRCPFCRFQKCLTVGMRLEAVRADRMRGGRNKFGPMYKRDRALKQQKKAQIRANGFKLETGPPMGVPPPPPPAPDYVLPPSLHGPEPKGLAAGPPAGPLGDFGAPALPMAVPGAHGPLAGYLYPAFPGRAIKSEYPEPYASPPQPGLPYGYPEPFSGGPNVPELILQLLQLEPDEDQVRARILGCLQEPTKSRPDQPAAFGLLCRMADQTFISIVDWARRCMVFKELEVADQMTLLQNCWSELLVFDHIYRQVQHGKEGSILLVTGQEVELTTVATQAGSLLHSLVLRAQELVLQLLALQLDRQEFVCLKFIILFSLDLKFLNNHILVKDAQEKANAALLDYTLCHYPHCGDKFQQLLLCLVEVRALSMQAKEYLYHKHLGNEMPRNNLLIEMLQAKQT

[2] = StAR promoter reporter inhibition counter-screen, dose response, counter-screen for LRH-1 inverse agonist project, cell-based, luminescence, luciferase reporter (AID 651969); type: functional
fMet-Leu-Phe receptor = biological target: T1, fMet-Leu-Phe receptor (Homo sapiens, UniProt P21462); experiment: FPR ligands, dose response (AID 519); type: functional
T1 sequence (P21462 whole entry): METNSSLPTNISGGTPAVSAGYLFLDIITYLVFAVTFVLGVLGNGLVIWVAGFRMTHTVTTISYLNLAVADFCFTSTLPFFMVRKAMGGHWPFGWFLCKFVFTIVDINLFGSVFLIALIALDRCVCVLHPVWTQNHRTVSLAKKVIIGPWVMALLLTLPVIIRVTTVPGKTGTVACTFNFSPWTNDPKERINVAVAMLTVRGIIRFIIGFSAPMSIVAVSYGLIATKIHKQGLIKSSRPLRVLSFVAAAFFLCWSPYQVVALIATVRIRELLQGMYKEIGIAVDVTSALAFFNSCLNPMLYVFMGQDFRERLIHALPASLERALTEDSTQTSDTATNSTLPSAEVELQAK

Paired box protein Pax-8 = Paired box protein Pax-8 (Homo sapiens, UniProt Q06710); experiment: inhibitors of PAX8-driven TPO luciferase reporter, dose response, RMG-I cells, cherry-pick (AID 687027); type: functional, cell-based;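 further: luciferase reporter driven by Pax8 target thyroperoxidase promoter measured by SteadyGlo luminescence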
Sequence of Paired box protein Pax-8 (Q06710 whole entry): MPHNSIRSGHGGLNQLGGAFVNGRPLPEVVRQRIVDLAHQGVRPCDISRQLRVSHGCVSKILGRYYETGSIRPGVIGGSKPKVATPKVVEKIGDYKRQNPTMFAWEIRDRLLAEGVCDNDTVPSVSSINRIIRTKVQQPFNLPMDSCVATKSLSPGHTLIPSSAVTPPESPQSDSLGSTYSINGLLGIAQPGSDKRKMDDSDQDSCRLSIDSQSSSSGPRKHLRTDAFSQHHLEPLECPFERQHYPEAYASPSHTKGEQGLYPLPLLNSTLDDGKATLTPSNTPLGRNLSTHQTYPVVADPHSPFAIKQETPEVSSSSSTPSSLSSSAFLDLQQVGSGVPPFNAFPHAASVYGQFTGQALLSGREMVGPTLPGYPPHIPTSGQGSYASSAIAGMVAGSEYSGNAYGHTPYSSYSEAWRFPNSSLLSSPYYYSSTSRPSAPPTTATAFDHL

[3] = NIH:OVCAR-3 ovarian cancer cell cytotoxicity, dose response, PAX8 inhibitor project, plate reader, dry powder samples (AID 743044); type: functional, cell-based
[4] = cytotoxicity in OVCAR8 ovarian cancer cells, dose response, PAX8 project, cell-based, plate reader, dry powder samples (AID 743197); type: functional; settings: OVCAR-8
[5] = IGROV1 ovarian cancer cell cytotoxicity, dose response, PAX8 inhibitor project, plate reader, dry powder samples (AID 743043); type: functional, cell-based; settings: IGROV-1
[6] = biological target: T2, Corticotropin-releasing factor receptor 2/Corticotropin-releasing factor-binding protein (Homo sapiens, UniProt P24387+Q13324); experiment: Dose Response confirmation of uHTS hits for small molecule antagonists of the CRF-binding protein and CRF-R2 receptor complex.; type: functional; settings: read-out: IC50_Mean
T2 sequence (Q13324 whole entry): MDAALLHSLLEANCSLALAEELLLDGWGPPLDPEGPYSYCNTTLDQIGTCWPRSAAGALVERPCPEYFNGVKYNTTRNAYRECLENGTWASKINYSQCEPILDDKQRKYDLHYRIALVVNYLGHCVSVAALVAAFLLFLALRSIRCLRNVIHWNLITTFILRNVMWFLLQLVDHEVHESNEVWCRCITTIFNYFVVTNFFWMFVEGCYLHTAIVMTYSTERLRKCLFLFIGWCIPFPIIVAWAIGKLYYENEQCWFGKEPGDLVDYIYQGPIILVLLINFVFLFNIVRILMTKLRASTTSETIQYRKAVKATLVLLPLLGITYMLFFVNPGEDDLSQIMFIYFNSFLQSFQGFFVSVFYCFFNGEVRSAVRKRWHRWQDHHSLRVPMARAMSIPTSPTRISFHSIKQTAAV
T2 sequence (P24387 whole entry): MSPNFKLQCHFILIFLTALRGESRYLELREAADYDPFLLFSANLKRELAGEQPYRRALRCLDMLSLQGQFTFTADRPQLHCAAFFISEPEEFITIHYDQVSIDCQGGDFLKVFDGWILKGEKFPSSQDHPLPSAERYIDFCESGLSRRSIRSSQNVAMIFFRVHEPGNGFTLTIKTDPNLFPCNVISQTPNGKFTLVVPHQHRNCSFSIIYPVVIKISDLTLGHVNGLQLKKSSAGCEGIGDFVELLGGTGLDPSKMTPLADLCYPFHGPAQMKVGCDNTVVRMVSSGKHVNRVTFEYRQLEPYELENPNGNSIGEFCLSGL

[7] = CRF-BP/CRF-R2 complex antagonists, dose response, cell-based, uHTS hits, 384-well (AID 651639); type: functional, Homo sapiens; settings: read-out: IC50_Mean
[8] = biological target: T2, Corticotropin-releasing factor receptor 2/Corticotropin-releasing factor-binding protein; experiment: activators of CRF receptor 2 with binding protein – uHTS hits, confirmation (AID 602473); type: functional; settings: read-out: EC50_Mean
[9] = A549 cell cytotoxicity, dose response, cytotoxicity control, plate reader, cherry-pick, antagonist series (AID 743412); type: functional, cell-based
[10] = HEK293 cell cytotoxicity, dose response, cytotoxicity control, plate reader, cherry-picked samples (AID 743446); type: functional, cell-based
[11] = non-specific cell cytotoxicity, dose response, cytotoxicity control for PAX8 inhibitor project, plate reader, dry powder samples (AID 743021); type: functional, cell-based
[12] = LGR2 antagonists, dose response, cell-based, HEK293, CRE-luciferase reporter, cherry pick, set 2 (AID 743343); type: functional;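 further: transfected cells were stimulated with diluted bursicon conditioned medium after compound addition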
[13] = MC4R antagonists, dose response, counter-screen for LGR2 antagonist project, cell-based, plate reader, cherry pick (AID 743444); type: functional;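 further: transfected HEK 293 cells stimulated with alpha-MSH peptide; potency of inhibitors of the alpha-MSH evoked signal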
[14] = HepG2 cell cytotoxicity, dose response, cytotoxicity control, plate reader, cherry-pick, antagonist series (AID 743416); type: functional, cell-based
[15] = biological target: T3, Rac GTPase-activating protein 1 (Homo sapiens, UniProt Q9H0H5); experiment: MgcRacGAP GTPase-activating activity inhibitors, confirmation, biochemical, ADP Hunter fluorescence, primary and confirmatory (AID 624330); type: functional
T3 sequence (Q9H0H5 whole entry): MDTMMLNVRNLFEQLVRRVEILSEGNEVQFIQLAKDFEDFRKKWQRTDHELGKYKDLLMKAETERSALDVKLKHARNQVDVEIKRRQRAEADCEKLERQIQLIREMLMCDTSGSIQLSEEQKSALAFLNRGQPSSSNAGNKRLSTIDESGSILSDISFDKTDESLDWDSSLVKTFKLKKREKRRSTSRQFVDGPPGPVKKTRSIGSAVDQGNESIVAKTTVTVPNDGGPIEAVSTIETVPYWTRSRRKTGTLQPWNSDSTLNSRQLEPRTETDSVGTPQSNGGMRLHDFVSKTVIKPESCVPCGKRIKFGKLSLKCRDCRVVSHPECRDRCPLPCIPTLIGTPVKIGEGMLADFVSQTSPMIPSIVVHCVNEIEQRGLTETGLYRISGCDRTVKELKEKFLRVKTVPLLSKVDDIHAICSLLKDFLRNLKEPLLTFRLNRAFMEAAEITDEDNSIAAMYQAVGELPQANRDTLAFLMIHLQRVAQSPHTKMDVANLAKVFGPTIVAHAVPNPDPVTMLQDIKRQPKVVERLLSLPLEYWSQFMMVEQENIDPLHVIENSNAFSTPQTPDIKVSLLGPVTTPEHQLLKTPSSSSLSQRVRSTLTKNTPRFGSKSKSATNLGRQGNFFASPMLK

[16] = biological target: T4, DNA repair protein RAD52 homolog (Homo sapiens, UniProt P43351); type: functional, biochemical
T4 sequence (P43351 whole entry): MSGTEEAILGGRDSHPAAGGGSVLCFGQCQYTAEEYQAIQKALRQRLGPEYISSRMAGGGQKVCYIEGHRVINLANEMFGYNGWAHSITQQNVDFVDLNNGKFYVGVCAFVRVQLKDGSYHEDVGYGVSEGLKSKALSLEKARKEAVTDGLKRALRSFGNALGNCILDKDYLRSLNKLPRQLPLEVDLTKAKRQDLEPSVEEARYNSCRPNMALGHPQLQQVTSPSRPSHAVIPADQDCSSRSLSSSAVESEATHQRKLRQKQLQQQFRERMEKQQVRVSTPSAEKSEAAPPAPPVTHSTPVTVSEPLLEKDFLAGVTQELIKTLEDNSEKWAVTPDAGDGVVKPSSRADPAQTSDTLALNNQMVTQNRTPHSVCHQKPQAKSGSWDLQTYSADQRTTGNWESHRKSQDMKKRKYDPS

Cytochrome P450 3A4 = Cytochrome P450 3A4 (Homo sapiens, UniProt P08684);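 further: CYP3A4 tested as one member of a cytochrome P450 panel screen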
Sequence of Cytochrome P450 3A4 (P08684 whole entry): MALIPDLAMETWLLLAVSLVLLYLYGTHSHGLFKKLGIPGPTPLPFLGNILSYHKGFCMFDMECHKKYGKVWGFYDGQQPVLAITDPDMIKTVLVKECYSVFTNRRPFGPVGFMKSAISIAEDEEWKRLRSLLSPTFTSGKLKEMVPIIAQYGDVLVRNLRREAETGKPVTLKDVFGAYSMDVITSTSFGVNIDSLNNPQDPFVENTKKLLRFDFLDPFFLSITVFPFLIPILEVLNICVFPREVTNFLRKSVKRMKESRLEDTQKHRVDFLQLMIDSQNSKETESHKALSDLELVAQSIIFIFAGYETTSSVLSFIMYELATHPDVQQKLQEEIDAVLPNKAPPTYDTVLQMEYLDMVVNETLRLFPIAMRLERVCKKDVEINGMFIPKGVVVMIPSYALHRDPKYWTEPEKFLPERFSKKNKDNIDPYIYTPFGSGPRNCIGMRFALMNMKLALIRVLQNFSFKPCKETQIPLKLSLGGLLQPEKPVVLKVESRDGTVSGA

Cytochrome P450 1A2 = biological target: T5, Cytochrome P450 1A2 (Homo sapiens, UniProt P05177);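 further: PubChem cytochrome P450 panel assay, CYP1A2 panel member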
T5 sequence (P05177 whole entry): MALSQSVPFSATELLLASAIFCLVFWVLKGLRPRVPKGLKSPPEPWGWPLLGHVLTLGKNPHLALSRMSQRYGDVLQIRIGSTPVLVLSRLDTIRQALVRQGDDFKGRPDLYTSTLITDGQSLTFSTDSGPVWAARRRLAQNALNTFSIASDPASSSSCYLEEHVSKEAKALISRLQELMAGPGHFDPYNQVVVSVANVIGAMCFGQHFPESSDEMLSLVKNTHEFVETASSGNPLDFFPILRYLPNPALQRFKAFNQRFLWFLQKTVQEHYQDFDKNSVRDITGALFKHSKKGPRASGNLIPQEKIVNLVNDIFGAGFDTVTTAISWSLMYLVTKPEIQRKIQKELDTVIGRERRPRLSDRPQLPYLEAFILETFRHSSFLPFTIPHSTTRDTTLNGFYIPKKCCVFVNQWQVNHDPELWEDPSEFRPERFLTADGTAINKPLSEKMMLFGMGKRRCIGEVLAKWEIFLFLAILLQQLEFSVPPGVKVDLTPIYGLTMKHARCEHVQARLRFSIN

[17] = Luminescence Cell-Based Dose Response HTS to Identify Activators of Luciferase Translation or Activity in H4 […] Cells. [Related pubchem assays: 1829 (Project Summary), 1814 (Primary HTS)]; type: functional
H4 = experiment: Luminescence Cell-Based Dose Response HTS to Identify Activators of 5'UTR Stem-Loop Driven Prion Protein mRNA Translation in H4 Neuroglioblastoma Cells. [Related pubchem assays: 1829 (Project Summary), 1814 (Primary HTS)]; type: functional; settings: Homo sapiens
[18] = ADAM10 inhibitors, peptide cleavage, dose response, biochemical, QFRET (AID 743254);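 further: ADAM10 enzyme with the DM2 quenched FRET peptide as substrate; EDANS fluorescence gain as the protease cuts the substrate; inhibitor potency against ADAM10 proteolytic activity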
[19] = biological target: Disintegrin and metalloproteinase domain-containing protein 17 (Homo sapiens, UniProt P78536); experiment: ADAM17 protease inhibitors, dose response, counter-screen for ADAM10 exosite inhibitor project, biochemical, quenched FRET substrate (AID 743253)
Sequence of Disintegrin and metalloproteinase domain-containing protein 17 (P78536 whole entry, the tested form may be a part): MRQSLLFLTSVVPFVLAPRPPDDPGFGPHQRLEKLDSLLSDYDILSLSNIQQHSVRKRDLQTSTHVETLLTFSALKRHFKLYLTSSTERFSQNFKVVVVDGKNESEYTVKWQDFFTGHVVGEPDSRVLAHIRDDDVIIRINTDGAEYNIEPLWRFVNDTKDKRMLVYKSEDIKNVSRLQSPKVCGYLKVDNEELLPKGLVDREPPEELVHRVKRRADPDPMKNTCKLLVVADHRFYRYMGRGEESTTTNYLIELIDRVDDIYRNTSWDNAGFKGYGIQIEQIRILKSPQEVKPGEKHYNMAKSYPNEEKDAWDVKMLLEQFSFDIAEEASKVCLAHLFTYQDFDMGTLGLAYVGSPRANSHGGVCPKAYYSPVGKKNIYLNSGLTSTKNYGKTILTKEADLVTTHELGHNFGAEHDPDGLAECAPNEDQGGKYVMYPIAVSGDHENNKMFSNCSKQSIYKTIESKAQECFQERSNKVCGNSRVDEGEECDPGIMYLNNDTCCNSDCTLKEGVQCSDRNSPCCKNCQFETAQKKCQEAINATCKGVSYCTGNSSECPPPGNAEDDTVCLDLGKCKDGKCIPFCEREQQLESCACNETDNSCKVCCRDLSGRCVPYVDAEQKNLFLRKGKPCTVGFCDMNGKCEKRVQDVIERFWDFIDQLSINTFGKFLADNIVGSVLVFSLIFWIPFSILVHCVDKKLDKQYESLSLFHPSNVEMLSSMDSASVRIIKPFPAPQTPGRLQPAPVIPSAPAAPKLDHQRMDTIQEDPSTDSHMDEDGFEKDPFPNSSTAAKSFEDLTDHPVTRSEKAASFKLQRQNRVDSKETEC

Sequence of Nuclear receptor subfamily 5 group A member 2 (O00482 whole entry): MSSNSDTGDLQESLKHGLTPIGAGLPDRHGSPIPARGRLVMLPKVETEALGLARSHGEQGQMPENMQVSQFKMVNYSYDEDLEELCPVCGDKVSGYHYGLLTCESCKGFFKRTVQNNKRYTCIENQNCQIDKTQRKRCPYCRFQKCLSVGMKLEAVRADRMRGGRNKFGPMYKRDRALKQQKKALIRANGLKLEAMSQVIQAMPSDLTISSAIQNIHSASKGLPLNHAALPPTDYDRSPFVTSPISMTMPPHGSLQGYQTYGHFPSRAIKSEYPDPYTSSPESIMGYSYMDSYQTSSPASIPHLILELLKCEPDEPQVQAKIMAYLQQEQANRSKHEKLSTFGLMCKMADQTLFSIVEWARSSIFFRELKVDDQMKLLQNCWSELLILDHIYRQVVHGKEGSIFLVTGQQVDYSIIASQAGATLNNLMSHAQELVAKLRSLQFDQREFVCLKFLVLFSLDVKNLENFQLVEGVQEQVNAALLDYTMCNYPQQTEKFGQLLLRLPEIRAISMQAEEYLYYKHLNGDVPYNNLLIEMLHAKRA

COCCNc1ccc([N+](=O)[O-])cc1C(=O)NC1CCCc2ccccc21 (centres undefined)
IC50 [1]: 9.5 µM (active)
IC50 (Steroidogenic factor 1): 5.53 µM (active)
IC50 [2]: 35.9 µM (inactive)

Cc1csc(NC(=O)CCn2c(=O)oc3ccccc32)n1
Ki (fMet-Leu-Phe receptor): > 66.7 µM (inactive)

C[C@@H]1CN([C@@H](C)CO)C(=O)c2cc(NC(=O)CCC(F)(F)F)ccc2O[C@@H](C)CCCCO[C@H]1CN(C)Cc1ccc(C(F)(F)F)cc1
AC50 (Paired box protein Pax-8): 2.43 µM (active)
AC50 [3]: 17.2 µM (active)
AC50 [4]: 50.8 µM (active)
AC50 [5]: 65.5 µM (active)

CCN(CC)C(=O)[C@H]1C[C@H](CC(=O)NC/C=C(\C)CCC=C(C)C)C(=O)N2CCc3c([nH]c4ccc(Cl)cc34)[C@]12C
IC50 [6]: < 0.368 µM (active)
IC50 [7]: 1.72 µM (active)
EC50 [8]: > 53 µM (inactive)

N#C[C@H]1[C@H](c2ccc(C#Cc3ccccc3F)cc2)[C@H](CO)N1C(=O)C1CCC1
AC50 [9]: 29.7 µM (active)
AC50 (Paired box protein Pax-8): 11.1 µM (active)
AC50 [10]: 17.9 µM (active)
AC50 [11]: 21.9 µM (active)
AC50 [12]: 11.4 µM (active)
AC50 [13]: 14.7 µM (active)
AC50 [3]: 23.8 µM (active)
AC50 [14]: 32.2 µM (active)

CCCNC(=O)CS(=O)(=O)Cc1nc(-c2cccc(OC)c2)oc1C
Ki (fMet-Leu-Phe receptor): > 66.7 µM (inactive)

CCS(=O)(=O)N1CC(=O)N2[C@H](CO)[C@@H](c3ccc(-c4ccccc4F)cc3)[C@H]2C1
AC50 (Paired box protein Pax-8): 5.26 µM (active)
AC50 [11]: 60.5 µM (active)
AC50 [3]: 14.1 µM (active)
AC50 [4]: 63 µM (active)
AC50 [5]: 28.6 µM (active)

CCOc1ccc(NC(=O)CSc2nncc(O)n2)cc1
IC50 [1]: 0.594 µM (active)
IC50 (Steroidogenic factor 1): 0.178 µM (active)
IC50 [2]: 35.9 µM (inactive)

Cc1[nH]c2nc(SCC(=O)c3cccc([N+](=O)[O-])c3)nc-2cc1Br
IC50 [6]: < 0.368 µM (active)
IC50 [7]: 6.28 µM (active)
EC50 [8]: > 53 µM (inactive)

CCCCN(CC)CCNC(=O)CCC(=O)Nc1ccc2nc(N3CCN(C)CC3)cc(C)c2c1
IC50 [15]: 164 µM (active)
AC50 [16]: 3.22 µM (active)

C[C@@H]1CCCCO[C@@H](CN(C)Cc2ccc(Cl)c(Cl)c2)[C@@H](C)CN([C@@H](C)CO)C(=O)c2cc(NC(=O)Nc3ccccc3)ccc2O1
AC50 (Paired box protein Pax-8): 4.6 µM (active)
AC50 [3]: 30.2 µM (active)
AC50 [5]: 49.2 µM (active)

COc1ccc(OC)c(C2C(C(=O)c3cccs3)=C(O)C(=O)N2c2cc(C)on2)c1 (centres undefined)
Ki (fMet-Leu-Phe receptor): > 66.7 µM (inactive)

O=C(C1=C(O)C(=O)N(Cc2ccco2)C1c1ccccc1)c1cccs1 (centres undefined)
AC50 (Cytochrome P450 3A4): 14.1 µM (inconclusive)
Ki (fMet-Leu-Phe receptor): 35.2 µM (inactive)
AC50 (Cytochrome P450 1A2): 25.1 µM (inconclusive)

Cc1no[n+]([O-])c1COc1ccccc1/C=N/n1nnnc1N
IC50 [1]: 35.9 µM (inactive)
EC50 [17]: 7.52 µM (active)
EC50 (H4): 98.6 µM (active)
IC50 (Steroidogenic factor 1): 35.9 µM (inactive)
IC50 [2]: 35.9 µM (inactive)

C=CCC[C@@H](Cc1ccc(F)cc1)C(=O)OC[C@H](Cc1c[nH]c2ccccc12)NC(=O)[C@H](CC=C)CC(=O)N(CCO)Cc1ccccc1
IC50 [18]: 5.38 µM (active)
IC50 [19]: > 69.5 µM (inactive)

Cc1cc(F)ccc1C(O)c1nc(-c2cccc(OCc3ccccc3)c2)c[nH]1 (centres undefined)
IC50 [18]: 13.9 µM (inactive)
IC50 [19]: > 69.5 µM (inactive)
